The numbers were not newly measured in patent US20110281902A1, “COMBINATIONS COMPRISING A PROTEIN KINASE INHIBITOR BEING A PYRIMIDYLAMINOBENZAMIDE COMPOUND AND A HSP90 INHIBITOR SUCH AS 17-AAG” (priority 2005, published 2011), which cites them from elsewhere.

SMILES strings stand for the structures.

The conditions of series [1]: makes it difficult to formulate/administer.
For series [2] the following is noted: clinical trials in hematological malignancies and solid tumors.

As for `C=CCNC1=C2C[C@@H](C)C[C@H](OC)[C@H](O)[C@@H](C)/C=C(\C)[C@H](OC(N)=O)[C@@H](OC)/C=C\C=C(/C)C(=O)NC(=CC1=O)C2=O` [17-AAG, 17-allylamino-17-demethoxygeldanamycin], the solubility result in series [1] is “poor solubility”. Besides, the dose limiting toxicity entry in series [2] is on record as “hepatic”.
